Patent publication US8741965B2, “Method of administering a pheromone composition to an animal to modify the animals behavior over an extended period of time” (Sergeant's Pet Care Products, Inc., priority 2011, dated 2014)

Key:
nervous dogs = test: Example 11 Study 3: DAP spray versus RP spray with startle; assay type: in vivo, dog
Excerpt: Eight dogs were obtained from a local contract research facility and assessment was made as to general dog health, behavior and heart rate. The dogs were estimated to be 2 to 7 years of age, mixed breed, and weighed averagely 8.1±0.18 kg at the start of the studies. […] Upon arrival each dog was bathed using shampoo containing flea and tick medicine (Hartz Mountain Corp. Secaucus, N.J. USA), and their body hair was shaved. Each dog was kept in a single room, which had 100% fresh air intake and exhaust. The dogs were fed twice (am and pm) per day ad libitum. At that time, the room was cleaned and the dogs obtained extra exercise. Water was available ad libitum.
Dog behavior was captured on video media at a sampling rate of 30 frames per second. Video records were reviewed in real time (with tape playing 30 frames per second). A scan sampling method was used to record dog behaviors each minute or each 5 minutes depending on the particular study. If the sample period was 120 minutes with four periods (0-30=0, 30-60=30, 60-90=60, and 90-120-90 min), then a scan sample was recorded each 1 minute. If the sample period was 24 hours, then the scan sample was collected each 5 minutes and summarized each hour. For example, pacing is when a dog walks in a stereotyped manner for minutes to hours. Because it was not easy to distinguish walking from pacing, the behaviors were merged. In addition, the video records could not clearly distinguish lying down and awake versus lying down and sleeping, therefore there was no separate description for these two behaviors.
Heart rate during the studies was measured by the use of a non-invasive telemetry system (Data Science International, St. Paul, Minn., USA). Leads were placed in contact with the dogs' shaved skin. Sensors measured heart rate, surface temperature and general activity. Data were transmitted to a receiving computer in another room. The sampling rate varied with the study, but was 5 seconds for the first two hours after treatments and then each 1 minute for 24 hours (depending on the particular study). For surface temperature measurements of the dog subjects, a thermistor was located against the skin of each dog. It recorded the surface temperature to the neared 0.1° C. on the same interval as the heart rate data.
Behavior and physiological data (heart rate and surface temperature) were analyzed by least squares analysis of variance using SAS (2011) software and the general linear models procedures. The experimental design of each study was a specialized randomized complete block in a Latin square design with data collected as a split plot over time. Dogs represented the blocks. Each dog received each treatment randomly in successive days or weeks. The statistical model included effects of treatment (TRT), dog, dog by treatment (TRT*DOG; error term used to assess treatment and dog effects), time (HR), treatment by time (TRT*HR), and residual error (SE; used to test remaining effects). Behavior data were collected and analyzed as counts per time period, but for clarity of presentation, the data are reported as percentage of time dogs engaged in each behavior.
In Study 1 and 2, the DAP was applied as a collar and the rabbit pheromone as a spray. To test if the physical form of the pheromone/INTEROMONE® impacted its efficacy, Study 3 examined the behavior and heart rate effects of Dog Appeasing Pheromone (DAP) and rabbit pheromone (RP) both applied as a spray after startle in order to obtain a direct comparison between sprays. Accordingly, Study 3 examined the relative effect of DAP spray (DAPS) and RP spray on the behavior and heart rate of the dog subjects. Both treatments were given to each dog in a random order. In this study, the Behavior data were collected from dogs 1-8 while heart rate data were collected from dogs 1-4.

cat = test: Collar containing rabbit pheromone worn by cats (Example 7); assay type: in vivo; settings: collar worn by a cat
Excerpt: A collar containing 2-methylbut-2-enal can be prepared in accordance with Examples 1 or 2.

anxious dogs = test: Efficacy of pheromone/INTEROMONE collars on dog heart rate, 24 h baseline and after Fog Horn startle (Example 4); assay type: in vivo
Protocol: Heart rate and surface temperature were measured by telemetry.
The study was conducted in two phases: Baseline and after startle. In the baseline study each of the four dogs received each collar treatment in random order for two days at a time. Heart rate and surface temperature were collected each 5 seconds for 24 hours. In the second phase, dogs were startled with a 110 dB Fog Horn and heart rate was measured each 1 second for 10 minutes before and 2 hours after startle.

dogs = test: Spray to face of dogs, heart rate for two hours (Example 10); assay type: in vivo, dog
Protocol: A spray composition comprising rabbit pheromone as an INTEROMONE® was prepared in accordance with Example 9. Four dogs were fitted with cloth jackets that contained electrodes to measure their heart rate. One dog was sprayed with the 2-methylbut-2-enal composition, one dog was sprayed with a placebo, and two dogs were sprayed with pheromone-based products currently on the market for purposes of modifying behavior. […] Data were collected for two hours following application of the spray to the facial/snout region of the four dogs. The control period was indicated as time zero (“0”) on FIG. 1 and FIG. 2.

adult anxious dogs = test: Collars, heart rate and behavior in adult anxious dogs, Latin square, foghorn startle (Example 6); assay type: in vivo, dog
Protocol: The objective of this study was to assess efficacy of pheromones/INTEROMONE® compositions to modulate heart rate and behavior in adult anxious dogs (trembling, cowering, shy). The dogs (8.1±0.18 kg; estimated 5-12 yr intact males) were obtained from a local research facility. Body weights and feed intake were recorded. Each dog was housed in a separately ventilated room with a minimum of 12 m^2 of floor space. Heart rate (HR) and surface temperature was measured using a telemetry system (Data Science International, St. Paul, Minn.). Behavior was recorded on a DVR and later reviewed by a trained individual. A scan sample was used with a recording interval of 5 min over 24 hours.
The dogs were treated with four different treatments on different days: Placebo collar (no Pheromone/INTEROMONE®), Pheromone only collar (Serg), Rabbit pheromone as INTEROMONE® collar (RP) (prepared in accordance with Example 1), and INTEROMONE® plus Pheromone collar (Serg+RP) (prepared in accordance with Example 3). At the end of 24 hours with a given collar, each dog was startled with a 110 db foghorn placed 12 cm from the dog's head while behavior and heart rate were recorded. Each dog received each treatment in a Latin square design with repeated measures over time. This model allowed evaluation of effects of treatment, dog, treatment by dog, time, treatment by time and dog by time.

dog = test: Room diffuser containing rabbit pheromone, use on dogs (Example 8); assay type: in vivo; settings: 0.02% 2-methylbut-2-enal
Excerpt: A room diffuser formulation containing rabbit pheromone can be prepared according to typical industry techniques described above. Table 4 is the list of ingredients that can be used to prepare a diffuser formulation comprising a rabbit pheromone.

In the case of `C/C=C(\C)C=O` [RP, 2-methylbut-2-enal], the Defecate (nervous dogs; DAPS or RP spray with startle) was 0.93 % of time, the Drink (nervous dogs; DAPS or RP spray with startle) was 0 % of time and the Eat (nervous dogs; DAPS or RP spray with startle) was 0 % of time. For the same compound, the Lick self (nervous dogs; DAPS or RP spray with startle) was 0 % of time, the Lying down (nervous dogs; DAPS or RP spray with startle) was 43.8 % of time and the Pace-walk (nervous dogs; DAPS or RP spray with startle) was 9.8 % of time. For the same compound, the Sitting (nervous dogs; DAPS or RP spray with startle) was 35.4 % of time, the Standing (nervous dogs; DAPS or RP spray with startle) was 3.7 % of time and the Urinate (nervous dogs; DAPS or RP spray with startle) was 0 % of time. The “sitting, main effect of treatment” value (nervous dogs; RP spray versus DAP spray, startle) was “tended to sit more (P=0.068) than DAP sprayed dogs”, the “heart rate change relative to time zero” value (nervous dogs; spray and startle, dogs 1-4, FIG. 14B) was “generally unchanged over time, although were lower than baseline rate” and the “lying down of individual dogs” value (nervous dogs; sprays, during startle, FIG. 13) was “Dog 3 showed increased lying down”. For the same compound, the “pacing-walking and standing of individual dogs” value (nervous dogs; sprays, startle, FIGS. 11 and 12) was “dogs 1 and 4 had increased pacing-walking”, the “change in cat behavior” value (cat) was “significant change in behavior towards a calmer demeanor” and the “heart rate over 24 hours with collar (overall and individual dogs)” value (anxious dogs; baseline phase, versus Placebo, FIG. 19) was “increased the heart rate of dog 1”. For the same compound, the “heart rate after startle (individual dogs)” value (anxious dogs; collar, 110 dB Fog Horn startle, FIG. 20) was “Dogs 1 and 4 had reduced heart rate”, the “decline in heart rate from hour of startle (hour 1) to next hour (hour 2), slope of regression” value (anxious dogs; collar, after startle, FIG. 21, placebo 15 bpm) was 26.6 bpm and the “reduction of average dog heart rate” value (dogs; FIG. 1) was 24.5 beats/min per hour. For the same compound, the “heart rate reduction over the two hour period” value (dogs; compared to marketed products and placebo) was 30%, the HR after startle (adult anxious dogs; collar 24 h, 110 db foghorn, placebo 157.8±7.2, P<0.01) was 124.5±7.2 bpm and the time pacing (adult anxious dogs; collar, placebo 3.8±0.02, P<0.05) was 3.0±0.2%. The time lying down (adult anxious dogs; collar, placebo 63.2±4.8, P=0.01) was 87.4±5.4 % of time, the “effect on dog HR (summary)” value (adult anxious dogs; collars) was “lowered HR” and the “change in dog behavior” value (dog) was “significant change in behavior towards a calmer demeanor”.
